# Reference: paper PMC4596527 (Bioorganic & medicinal chemistry, 2010)
# Marks after values point to notes of the source that are not given here.
# Tests used:
# [1] = test system: Langendorff-perfused heart; details: attributed to activation of Akt and ERK1/2 pathways; cited from earlier work
# myocite = details: exposure to hypoxantine and xantine oxidase; cited from earlier work
# [2] = test system: Chinese hamster ovary (CHO) cells; assay: MTT cell viability, protection against H2O2-mediated cytotoxicity in CHO cells; details: for Cytotoxicity CHO (%): 50 μM compound for 2 h, then 1mM H2O2 for 1 h, MTT
# reperfused myocardium = details: in vivo I/R injury; cited from earlier work
# [3] = Superoxide radical scavenging by EPR spin trapping; details: PBS pH 7.4
# [4] = test system: human aortic vascular smooth muscle cells (HSMCs); assay: MTT cell viability, protection against H2O2-mediated cytotoxicity in HSMC cells; details: 50 μM compound for 2 h, then 1mM H2O2 for 1 h
# [5] = 1-mM compound in presence of 1-mM DEPMPO
# [6] = 100-μM compound in presence of 1-mM DEPMPO
Molecule,protection of CHO cells against H2O2 compared with verapamil (in words) [2],"Superoxide Scavenging (%) [3, 5]",Cytotoxicity HSMC (%) [4],Cytotoxicity CHO (%) [2],also measured
"COc1ccc(CCN(C)CCCC(C#N)(c2ccc(OC)c(OC)c2)C(C)C)cc1OC (stereo not shown) [Compound 1, verapamil]",,,,,oxidative damage during ischemia and reperfusion [1]: decreased oxidative damage; myocite viability (myocite): preserved
COc1ccc(CCN(C)CCCC(CNC(=O)C2=CC(C)(C)N(O)C2(C)C)(c2ccc(OC)c(OC)c2)C(C)C)cc1OC.Cl (stereo not shown) [Compound 12B],good protection,,,,
COc1ccc(CCN(C)CCCC(CNC(=O)C2=CC(C)(C)N(O)C(C)(C)C2)(c2ccc(OC)c(OC)c2)C(C)C)cc1OC.Cl (stereo not shown) [Compound 16B],good protection,,,,Akt and Bcl-2 levels in reperfused myocardium (reperfused myocardium): enhanced; nitric oxide generation in reperfused myocardium (reperfused myocardium): increased; superoxide production in reperfused myocardium (reperfused myocardium): markedly attenuated
COc1ccc(CCN(C)CCCC(CNC(=O)C2CC(C)(C)N(O)C(C)(C)C2)(c2ccc(OC)c(OC)c2)C(C)C)cc1OC.Cl (stereo not shown) [Compound 17B],good protection,,,,
"COc1ccc(CCN(CCCC(C#N)(c2ccc(OC)c(OC)c2)C(C)C)CC2=CC(C)(C)NC2(C)C)cc1OC (stereo not shown) [Compound 23A, 2-(3,4-Dimethoxyphenyl)-5-[[2-(3,4-dimethoxyphenyl)ethyl]-(2,2,5,5-tetramethyl-2,5-dihydro-1H-pyrrol-3-ylmethyl)-amino]-2-isopropyl-pentanenitrile]",,70.6 ± 3.3 ^a %,64.8 ± 7.1%,74.0 ± 3.4%,
"COc1ccc(CCN(CCCC(C#N)(c2ccc(OC)c(OC)c2)C(C)C)CC2=CC(C)(C)N(O)C2(C)C)cc1OC.Cl (stereo not shown) [Compound 23B, 2-(3,4-Dimethoxyphenyl)-5-[[2-(3,4-dimethoxyphenyl)ethyl]-(1-hydroxy-2,2,5,5-tetramethyl-2,5-dihydro-1H-pyrrol-3-ylmethyl)-amino]-2-isopropyl-pentanenitrile HCl Salt]",,100%,58.6 ± 4.8%,66.7 ± 3.0%,"Superoxide Scavenging (%) [3, 6]: 78.1±2.6%"
"COc1ccc(CCN(CCCC(C#N)(c2ccc(OC)c(OC)c2)C(C)C)CC2=CC(C)(C)NC(C)(C)C2)cc1OC (stereo not shown) [Compound 24A, 2-(3,4-Dimethoxyphenyl)-5-[[2-(3,4-dimethoxyphenyl)ethyl]-(2,2,6,6-tetramethyl-1,2,3,6-tetrahydropyridin-4-ylmethyl)amino]-2-isopropyl-pentanenitrile]",,68.2 ± 7.6 ^a %,91.1 ± 0.5%,95.3 ± 0.5%,
"COc1ccc(CCN(CCCC(C#N)(c2ccc(OC)c(OC)c2)C(C)C)CC2=CC(C)(C)N(O)C(C)(C)C2)cc1OC.Cl (stereo not shown) [Compound 24B, 2-(3,4-Dimethoxyphenyl)-5-[[2-(3,4-dimethoxyphenyl)ethyl]-(1-hydroxy-2,2,6,6-tetramethyl-1,2,3,6-tetrahydropyridin-4-ylmethyl)amino]-2-isopropyl-pentanenitrile HCl Salt]",,100%,57.2 ± 5.4%,64.8 ± 5.6%,"Superoxide Scavenging (%) [3, 6]: 82.5±2.7%"
"[4-Cyano-4-(3,4-dimethoxyphenyl)-5-methylhexyl]-[2-(3,4-dimethoxyphenyl)ethyl]-(1-oxyl-2,2,5,5-tetramethyl-2,5-dihydro-1H-pyrrol-3-ylmethyl)methylammonium Iodide Salt Radical [Compound 25]",good protection,73.8 ± 3.0 ^a %,,,
"[4-Cyano-4-(3,4-dimethoxyphenyl)-5-methylhexyl]-[2-(3,4-dimethoxyphenyl)ethyl]-(1-oxyl-2,2,6,6-tetramethyl-1,2,3,6-tetrahydropyridin-4-ylmethyl)methylammonium Iodide Salt Radical [Compound 26]",,48.1 ± 2.7 ^a %,,,
